From US5409935A, “Xanthine derivatives for the treatment of secondary nerve cell damage and functional disorders after cranio-cerebral traumas” (Hoechst Aktiengesellschaft, priority 1991, dated 1995)

Experiments:
peritoneal macrophages = assay: Flow-cytometric free radical formation (oxidation of Dihydrorhodamine 123 to Rhodamine 123) in peritoneal macrophages, conA-stimulated; type: cell-based, white male Wistar rats; conditions: for fluorescence, conA ± Comp. 1: 50 μM compound 1, conA-stimulated; for inhibition at 50 µM: conA-stimulated, * p < 0.05
Protocol: Peritoneal macrophages were obtained by peritoneal washing of white male Wistar rats aged 12 weeks with 10 ml of HBS-Hanks (Serva Feinbiochemica, Heidelberg). […] All cells were stored for a period of at most 2 hours after preparation until flow-cytrometric analysis at 4° C.
The cell volume and two fluorescences were simultaneously measured in about 10,000 cells per sample using a FACScan flow cytometer (Becton Dickinson, San Jose, Calif., USA). […] The flow cytometer was calibrated with standardized yellow-green-fluorescing microspheres of 4.3 μm diameter (Polysciences, St. Goar, F.R.G.).
(§1) Each measurement is based on the individual measurements of the cells contained in a sample (about 10,000). In order to keep the experimental boundary conditions as constant as possible, several experiments were carried out successively on the same day. In such a test series, in each case four different samples of an experimental group and their control were measured by flow cytometry at variously defined points of time. As a rule, 3-4 test series were carried out per experimental group.

[1] = known; cited from earlier work
[2] = arterial circulatory disorders, known; cited from earlier work
microglia cells = assay: Flow-cytometric free radical formation (Rhodamine 123 fluorescence) in cultured microglia cells; type: cell-based, newborn rats; conditions: for inhibition at 50 µM: Rattus norvegicus, Microglia, * p < 0.05
Protocol: In order to measure the intracellular generation of oxygen free radicals in peritoneal macrophages and in cultures of activated microglia, a flow-cytometric method was used (Rothe, Oser, Valet, Naturwissenschaften, 75, 354, 1988). Specifically, the free radical formation in individual viable cells was determined by measuring the intracellular oxidation of the membrane-permeable and non-fluorescent Dihydrorhodamine 123 (DHR; Eugene, Ore., USA) to the membrane-impermeable and intracellularly "trapped", green fluorescent Rhodamine 123.
DHR was dissolved in a 43.3 mM stock solution in N,N-dimethylformamide (DMF; Merck, Darmstadt, F.R.G.). The method is also suitable for the individual and simultaneous measurement of various subpopulations within a heterogeneous cell population; it therefore allows the exclusion of contaminating populations. Moreover, in another series of tests the identification of the cell type to be measured in each case was simultaneously confirmed during the flow-cytometric measurement by specific immunocytochemical antibody staining. Peritoneal macrophages were obtained by peritoneal washing of white male Wistar rats aged 12 weeks with 10 ml of HBS-Hanks (Serva Feinbiochemica, Heidelberg). The cells were sedimented at 200 g and 20° C. for 5 min and resuspended in HBS-Hanks (4×10^6 cells/ml). All cells were stored for a period of at most 2 hours after preparation until flow-cytrometric analysis at 4° C.
Microglia cultures from the brain of newborn rats were prepared (Giulian & Baker, J. Neuroscience, 1986, 6:2163-2178). After mechanical dissociation of the tissue in Dulbecco's modified Eagle's medium (Sigma Chemie, DMEM), supplemented with 2 g/l of NaHCO3 and 20% heat-inactivated fetal calf serum, the primary cultures were kept in […] culture flasks at 3% pCO2 and 37° C. for 2 to 4 weeks. Cells which grew on the surface of a continuous cell layer were removed by shaking, pelleted and resuspended (3×10^6 cells/ml) in Hepes Hanks buffered salt solution (5 mM Hepes, 0.15M NaCl, pH 7.35; Serva Feinbiochemica, Heidelberg, F.R.G.). In order to test the effect of the compound 1, in the experimental groups the DHR-loaded cells were incubated with 50 μM of the compound according to the invention for 15, 25, 35, 45 and 60 min, to be precise with or without parallel stimulation of free radical formation by concanavalin A (conA, 100 μM/ml). No active substance was added to the respective control groups.
The cell volume and two fluorescences were simultaneously measured in about 10,000 cells per sample using a FACScan flow cytometer (Becton Dickinson, San Jose, Calif., USA). Rhodamine 123 green fluorescence (500-530 nm) and propidium iodide red fluorescence (590-700 nm) were measured with excitation by an argon laser with a wavelength of 488 nm. The flow cytometer was calibrated with standardized yellow-green-fluorescing microspheres of 4.3 μm diameter (Polysciences, St. Goar, F.R.G.).
as §1

CCCn1cnc2c1c(=O)n(CCCCC(C)=O)c(=O)n2C [compound 1, 1-(5-oxohexyl)-3-methyl-7-n-propylxanthine]
suppressive effect on free radical formation, dose dependence (peritoneal macrophages; 10 μM and 50 μM): dose-dependent | stimulatory effect of conA in the presence of compound 1 (peritoneal macrophages; 50 μM compound 1): blocked | fluorescence, conA ± Comp. 1 (peritoneal macrophages; 15 min): 9.0875 apparatusspecific units | fluorescence, conA ± Comp. 1 (peritoneal macrophages; 25 min): 8.0867 apparatusspecific units | fluorescence, conA ± Comp. 1 (peritoneal macrophages; 35 min): 25.5 apparatusspecific units | fluorescence, conA ± Comp. 1 (peritoneal macrophages; 45 min): 31.755 apparatusspecific units | significance of effect of compound 1 (peritoneal macrophages; 50 μM, all measurements with incubation times over 15 min): significant (p<0.05 in the t-test) | inhibition at 50 µM (peritoneal macrophages; Rattus norvegicus, Peritoneal macrophage, 25 min, 50 μM): 60% | inhibition at 10 µM (peritoneal macrophages; Rattus norvegicus, Peritoneal macrophage, 35 min, 10 μM, maximum conA activation, p<0.05 in the t-test): 21% | inhibition at 50 µM (peritoneal macrophages; Rattus norvegicus, Peritoneal macrophage, 35 min, 50 μM): 37% | inhibition at 50 µM (peritoneal macrophages; Rattus norvegicus, Peritoneal macrophage, 0.75 h, 50 μM, 45 min): 32% | toxicity [1]: low toxicity | vasodilating action [2]: vasodilating action | inhibition of free radical formation (microglia cells; 50 μM): clear inhibition | fluorescence, Compound 1 (microglia cells; 50 μM, 15 min): 2060.6 apparatusspecific units | fluorescence, Compound 1 (microglia cells; 50 μM, 25 min): 2121.3 apparatusspecific units | fluorescence, Compound 1 (microglia cells; 50 μM, 35 min): 1170.4 apparatusspecific units | maximum depression of cellular Rhodamine 123 fluorescence (microglia cells; 50 μM, 35 min): about one-third | fluorescence, Compound 1 (microglia cells; 50 μM, 45 min): 1556.9 apparatusspecific units | fluorescence, Compound 1 (microglia cells; 50 μM, 60 min): 910.4 apparatusspecific units | significance of effect of compound 1 (microglia cells; 50 μM, incubation times of over 15 min): significant (p<0.05 in the t-test) | inhibition at 50 µM (microglia cells; 25 min): 19% | inhibition at 50 µM (microglia cells; 35 min): 27% | inhibition at 50 µM (microglia cells; 0.75 h, 45 min): 23% | inhibition at 50 µM (microglia cells; 1 h, 60 min): 27%
